# Data taken from patent US7803764B2, “Amphipathic glycopeptides” (The Arizona Board of Regents on Behalf of the University of …, priority 2004, dated 2010).
# Assays:
# water solubility = conditions: H2O
# [1] = helicity by circular dichroism; assay type: physicochemical; conditions: for % α-helicity: CD, SDS micelles (30 mM), pH = 7.0, 18° C.
# Protocol: Circular Dichroism. All of the circular dichroism experiments were carried out on Aviv Associates model 60DS using an Endcal Model RTE4DD water circulator as a temperature-control vehicle. The instrument was calibrated by using d-10-camphorsulphonic acid. The spectra were recorded between 200 and 250 nm by using the continuous mode with a 1.5 nm bandwidth, a three second response and a scan step of 0.5 nm in a cell with a path length of 0.1 cm. Three or five scans were accumulated and averaged for each spectrum. Glycopeptide stock solutions were prepared by weighing the required amount, using Cahn/Ventron Instruments Model 21 automatic analytical electrobalance, to make 1 mL of a 0.5-1.0 mM solution and the pH was adjusted to the desired value. Samples were prepared by diluting the stock solution to 70-80 μM. All observed spectra were baseline-subtracted and smoothed by adjacent average of 5 points using Microcal Origin Ver. 5.0 software (Microcal Software Inc, USA). The molar ellipticities were determined using the formula [θ]=[θ]obs·(MRW)/10·l·C, where [θ]obs observed ellipticity in millidegrees, MRW is the mean residue weight, l is the cell path length in centimeters and C is the glycopeptide concentration in mg/mL. The percent α-helicity was determined by using the formula % helix=[θ]n→π*/−40,000 (1−2.5/n)·100, where n represents the number of amide bonds (including the C-terminal amide) in the glycopeptide and [θ]n→π** is molar ellipticity of n→π* transition band at 222 nm.^55
# Conformational Analysis by CD. Circular dichroism (CD) is a powerful and simple tool for identifying secondary structure in both peptides and proteins.^64 All the peptides were subjected to CD analysis in H2O, TFE-H2O mixtures, SDS micelles and phospholipid bicelles. In H2O, a negative band near 200 nm is observed that arises from the π→π* electronic transition and is typical of random coil peptides. […] This behavior is explained as nascent helices.^65 In these nascent helices, helix CD signals could be induced by the addition of TFE.^66 All the glycopeptides gave an increased helix CD signal in TFE. The percentage of helicity increases as TFE concentration increases, but reached a maximum at 30% TFE. The increase in helicity in TFE can be attributed to decreased competition by H2O for hydrogen bonding to the backbone amides. […] In the presence of SDS micelles and anionic bicelles, the band at 200 nm underwent a red shift (higher value) and an additional shoulder appears around 222 nm as a result of the n→π* transition. […] The negative maxima at 222 nm (n→π* transition band) is used to calculate the helical content of polypeptides and proteins. The accepted value for a peptide that is 100% helical is approximately −35,000. It was observed that changes in amplitude of the bands up to 30% depend on length of helix.^67 The amplitude increases as α-helical chain length increases. Therefore, one has to consider the importance of chain-length dependence of the α-helix CD in the quantitative treatment of helix content in proteins and polypeptides. The percentage of helicity is independent of SDS concentration and pH (data not shown). In the presence of zwitterionic bicelles all of the glycopeptides yielded CD spectra similar to that observed in H2O, but anionic bicelles forced them to become more helical. The intensities of the [θ]π→π* band and the [θ]n→π* band are expected to be almost equal for a perfect α-helical peptide. […] A modest blue shift and reduced intensity for the [θ]n→π* transition bands are observed for all the glycopeptides in TFE. […] The glycopeptides 9 (Pro/Glc) and 12 (Pro/Lactose), which differ only by the sugar moiety attached, adopt perfect helices in the presence of SDS micelles and in anionic bicelles. The disaccharide increased the percentage of helicity in all the solvents, relative to the monosaccharide. […] It is remarkable to note that a single amino acid mutation at position 6 produced profound changes in the CD spectra. […]
# δ opioid receptor = δ opioid receptor (Homo sapiens, UniProt P41143); experiment: opioid receptor binding, δ receptor
# Chain of δ opioid receptor (P41143 whole entry): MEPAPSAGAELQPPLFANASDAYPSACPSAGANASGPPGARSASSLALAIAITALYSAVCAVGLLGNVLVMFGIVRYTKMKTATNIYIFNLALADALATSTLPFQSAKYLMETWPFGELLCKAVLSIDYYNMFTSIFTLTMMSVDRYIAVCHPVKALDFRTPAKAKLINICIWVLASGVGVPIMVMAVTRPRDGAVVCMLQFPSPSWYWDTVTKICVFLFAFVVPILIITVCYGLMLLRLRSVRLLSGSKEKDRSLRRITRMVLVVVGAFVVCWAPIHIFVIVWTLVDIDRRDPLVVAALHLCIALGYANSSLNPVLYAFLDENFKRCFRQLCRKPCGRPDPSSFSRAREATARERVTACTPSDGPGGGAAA
# [2] = blood-brain barrier uptake / penetration; conditions: mice
# μ opioid receptor = μ opioid receptor (Homo sapiens, UniProt P35372); experiment: opioid receptor binding, μ receptor
# Chain of μ opioid receptor (P35372 whole entry): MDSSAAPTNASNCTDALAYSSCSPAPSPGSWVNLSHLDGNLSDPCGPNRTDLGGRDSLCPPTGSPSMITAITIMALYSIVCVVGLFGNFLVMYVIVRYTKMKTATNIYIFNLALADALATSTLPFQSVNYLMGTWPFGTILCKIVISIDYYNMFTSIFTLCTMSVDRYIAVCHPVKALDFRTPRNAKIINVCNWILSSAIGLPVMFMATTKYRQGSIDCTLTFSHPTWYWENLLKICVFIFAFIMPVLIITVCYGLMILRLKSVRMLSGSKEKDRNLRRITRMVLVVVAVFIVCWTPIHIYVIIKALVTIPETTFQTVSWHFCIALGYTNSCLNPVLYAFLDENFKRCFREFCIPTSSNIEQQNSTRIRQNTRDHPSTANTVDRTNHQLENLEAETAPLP
# [3] = helicity by NMR αCH chemical shift index; assay type: physicochemical
# Protocol: NMR Spectroscopy. All NMR spectra were recorded on a Bruker DRX600 600 MHz spectrometer. Glycopeptide concentration for the NMR experiments varied from 2-3 mM. The glycopeptides were prepared in TFE-water solution by dissolving the peptide in 0.6 ml solution of a premixed 30% TFE-water mixture. The micelle samples were prepared by dissolving the glycopeptide and 100 equivalent of perdeuterated SDS in 0.6 ml of H2O/D2O (9:1 ratio by volume). Bicelles were produced from deuterated phospholipids. The zwitterionic bicelles were made by mixing the short chain phospholipid dihexanoyl-sn-glycero-3-phosphatidylcholine-d22 (DHPC) and the long chain 1,2-dimyristoyl-sn-glycero-3-phosphatidylcholine-d54 (DMPC) in the molar ratio of 2:1 in H2O. The […] were prepared by substituting 10 mol % of 1,2-dimyristoyl-sn-glycero-3-phospho-1-glycerol-d54 (DMPG) for DMPC. The glycopeptide to bicelle ratio was 1:25. After the glycopeptide was added to the bicelle solution, the system was submitted to a series o f three freeze/thaw/slight vortex shaking cycles. The pH of the each sample was adjusted to 4.5 by using DCl or NaOD as necessary. TSP (3-(trimethylsilyl)-d4-propionic acid) was added as an internal standard. The experiments in F3CCD2OD/H2O mixtures were at 293 K and for experiments in micelles/bicelles were at 298 or 311 K. Two-dimensional double quantum filtered correlation (DQF-COSY), rotating-frame Overhauser enhancement^56 (ROESY), Nuclear Overhauser enhancement^57 (NOESY), and total correlation spectra^58 (TOCSY) were acquired using standard pulse sequences and processed using XWINNMR (Bruker Inc) and FELIX2000 (Accelrys Inc, San Diego, Calif.), Mixing times for TOCSY spectra were either 80 or 100 ms. Mixing times for ROESY spectra were 150 or 250 ms, and for NOESY spectra were 200 or 300 ms. All experiments were 750 increments in t1, 16/32/64 scans each, 1.5 s relaxation delay, size 2 or 4K, and the spectral processing was with shifted sine bell window multiplications in both dimensions.
# αCH Chemical Shift Index. […] At this point there is no accepted random coil αCH values for glycosylated serine, CSI values for this position are uncertain. The conformational shift values for all solvents were obtained using the random coil values described by Wright and co-workers.^72 Although, these reference shifts were obtained at pH=5.0 at 4.2° C., they appear to be very insensitive to the conditions, as very small deviations (±0.04) were observed when random coil values are obtained at pH=7.0 at 35° C. by Wuthrich and co-workers.^68 The quantification of secondary structure based on αCH chemical shifts is neglected in the literature because various contributions cannot be strictly accounted for, such as electrostatic effects, ring current shifts, and other magnetic anisotropies. However, it is possible to make qualitative comparison of helical content between closely related (glyco)peptides. Since the 3rd generation glycopeptides differ by only one amino acid at position 6, the helical content was obtained based on the αCH chemical shift values (Table 3). The method described by Gierasch and co-workers^69a was used. First, the average conformational shift was calculated for each glycopeptide by adding all upfield shifts in the helical regions and dividing by the total number of peptide bonds. Then, to obtain the overall helical content for each glycopeptide, the average conformational shift was divided by 0.35 ppm, which was assigned for 100% helicity. Since, there are no random coil values available for β-Alanine and glycosylated serine residues, they were not included in the calculation. The helicogenic Aib residue lacks an α-proton, and there was no correction included in the calculation for the helicity provided by Aib residue. The helical content obtained by this method correlated with the helical content obtained by CD. […]
# [4] = in vivo antinociception after i.c.v. administration; design: species or system mice; conditions: i.c.v., mice, antinociception
compound,measurement,setting,value
"CC(C)C[C@H](NC(=O)[C@H](C)NC(=O)[C@H](CC(N)=O)NC(=O)[C@H](Cc1ccccc1)NC(=O)[C@H](Cc1c[nH]c2ccccc12)NC(=O)[C@H](CCCCN)NC(=O)[C@H](CO[C@@H]1O[C@H](CO)[C@@H](O)[C@H](O)[C@H]1O)NC(=O)[C@H](C)NC(=O)[C@H](CC(C)C)NC(=O)[C@H](CCC(=O)O)NC(=O)CNC(=O)[C@H](CC(C)C)NC(=O)[C@H](Cc1ccccc1)NC(=O)CNC(=O)[C@H](NC(=O)[C@@H](N)Cc1ccc(O)cc1)[C@H](C)O)C(=O)N[C@@H](CCC(=O)O)C(N)=O (relative stereo) [Glycopeptide 1, YtGFLGELAS*KWFNALE]",water solubility,water solubility,H2O insoluble
same,% α-helicity,[1],85%
"CC(C)C[C@H](NC(=O)[C@H](C)NC(=O)[C@H](CC(N)=O)NC(=O)[C@H](Cc1ccccc1)NC(=O)[C@H](Cc1c[nH]c2ccccc12)NC(=O)[C@H](CCCCN)NC(=O)[C@H](CO[C@@H]1O[C@H](CO)[C@@H](O)[C@H](O)[C@H]1O)NC(=O)[C@H](C)NC(=O)[C@H](CC(C)C)NC(=O)[C@H](CCC(=O)O)NC(=O)CNC(=O)[C@H](CC(C)C)NC(=O)[C@H](Cc1ccccc1)NC(=O)CNC(=O)[C@H](NC(=O)[C@@H](N)Cc1ccc(O)cc1)[C@H](C)O)C(=O)N[C@@H](CCC(=O)O)C(=O)N[C@@H](CO[C@@H]1O[C@H](CO)[C@@H](O)[C@H](O)[C@H]1O)C(=O)N[C@@H](Cc1ccccc1)C(N)=O (relative stereo) [Glycopeptide 3, YtGFLGELAS*KWFNALES*F]",water solubility,water solubility,H2O insoluble
same,% α-helicity,[1],65%
"CC(C)C[C@H](NC(=O)[C@H](C)NC(=O)[C@H](CC(N)=O)NC(=O)[C@H](Cc1ccccc1)NC(=O)[C@H](Cc1c[nH]c2ccccc12)NC(=O)[C@H](CCCCN)NC(=O)[C@H](CO[C@@H]1O[C@H](CO)[C@@H](O)[C@H](O)[C@H]1O)NC(=O)[C@H](C)NC(=O)[C@H](CC(C)C)NC(=O)[C@H](CCC(=O)O)NC(=O)CNC(=O)[C@H](CC(C)C)NC(=O)[C@H](Cc1ccccc1)NC(=O)CNC(=O)[C@H](NC(=O)[C@@H](N)Cc1ccc(O)cc1)[C@H](C)O)C(=O)N[C@@H](CCC(=O)O)C(=O)N[C@@H](CO[C@@H]1O[C@H](CO)[C@@H](O)[C@H](O)[C@H]1O)C(=O)N[C@@H](Cc1ccccc1)C(=O)N[C@@H](Cc1c[nH]c2ccccc12)C(N)=O (relative stereo) [Glycopeptide 4, YtGFLGELAS*KWFNALES*FW]",water solubility,water solubility,H2O insoluble
same,% α-helicity,[1],82%
"CC(C)C[C@H](NC(=O)[C@H](CO[C@@H]1O[C@H](CO)[C@@H](O)[C@H](O)[C@H]1O)NC(=O)[C@H](CCCCN)NC(=O)[C@H](CC(C)C)NC(=O)[C@H](C)NC(=O)[C@H](CCCCN)NC(=O)[C@H](CCC(=O)O)NC(=O)C(C)(C)NC(=O)[C@H](CC(C)C)NC(=O)[C@H](CC(N)=O)NC(=O)CCNC(=O)[C@H](CC(C)C)NC(=O)[C@H](Cc1ccccc1)NC(=O)CNC(=O)[C@H](NC(=O)[C@@H](N)Cc1ccc(O)cc1)[C@H](C)O)C(N)=O (relative stereo) [Glycopeptide 10, YtGFLβANLBEKALKS*L]",% α-helicity by CD,[1]; solvent Bicelle A (anionic bicelles),27%
same,% α-helicity by CD,[1]; solvent H2O,>1%
same,% α-helicity by CD,[1]; solvent SDS micelles,29%
same,% α-helicity by CD,[1]; solvent TFE,22%
same,IC50,δ opioid receptor,109 nM
same,BBB uptake,[2],0.183 microliters per min per gram of cortex
same,IC50,μ opioid receptor,153 nM
same,% α-helicity by NMR,[3]; solvent H2O,17%
same,% α-helicity by NMR,[3]; solvent SDS micelles,55%
same,% α-helicity by NMR,[3]; solvent TFE,32%
same,A50 i.c.v.,[4],0.030 nmol
